Calls of active or inactive are those of the source. The rule behind the calls is not given here.
Tests used:
A549 [1] = experiment: Reduction in ganglioside GM2 content of human A549 cell extract at 15 uM after 48 hrs by UPLC-MS analysis; type: functional, cell-based
A549 [2] = experiment: Elevation in lactosylceramide content of human A549 cell extract at 15 uM after 48 hrs by UPLC-MS analysis; type: functional
[3] = system: N-acetyl-D-glucosaminidase; experiment: Stability of the compound in presence of Jack bean N-acetyl-D-glucosaminidase assessed as compound hydrolyzed to N-acetyl-D-glucosamine at 1 mM after 48 hrs by HPLC analysis; type: ADME; settings: Jack bean N-acetyl-D-glucosaminidase (isolated enzyme), read-out: Activity
A549 [4] = experiment: Reduction in ganglioside GM3 content of human A549 cell extract at 15 uM after 48 hrs by UPLC-MS analysis; type: functional, cell-based
C6 [5] = experiment: Antiproliferative activity against rat C6 cells after 48 hrs by MTT assay; type: functional; settings: C6, 48 h, read-out: ID50 (the source's name)
A549 [6] = experiment: Elevation in glucosylceramide content of human A549 cell extract at 15 uM after 48 hrs by UPLC-MS analysis; type: functional, cell-based
A549 [7] = experiment: Antiproliferative activity against human A549 cells after 48 hrs by MTT assay; type: functional; settings: A549, 48 h, read-out: ID50 (the source's name)
A549 [8] = experiment: Drug uptake in 10^6 human A549 cells at 15 uM after 48 hrs by UPLC-MS analysis; type: ADME, cell-based; settings: a549, 48 h
C6 [9] = experiment: Antitumor activity against rat C6 cells xenografted in nude mouse assessed as delay in tumor growth at 1 to 10 mg/kg, intratumorally administered for 8 days measured after 8 days relative to control; type: functional, organism-based
A549 [10] = experiment: Reduction in glucosylceramide content of human A549 cell extract at 15 uM after 48 hrs by UPLC-MS analysis; type: functional, cell-based
C6 [11] = experiment: Antitumor activity against rat C6 cells xenografted in nude mouse assessed as reduction in tumor volume at 1 to 10 mg/kg, intratumorally administered for 8 days measured after 8 days relative to control; type: functional, organism-based
[12] = Drug uptake in cyst of nude mouse xenografted with rat C6 cells assessed as formation of olelyl alcohol at 10 mg/kg, intratumorally administered for 8 days by 1H MAS NMR spectroscopy; type: ADME, organism-based; parameters: dose 10 mg/kg; settings: in vivo, other, 192 h
C6 [13] = experiment: Antitumor activity against rat C6 cells xenografted in nude mouse assessed as reduction in tumor size at 1 mg/kg, intratumorally administered for 14 days; type: functional, organism-based; parameters: dose 1 mg/kg
[14] = Stability of the compound in presence of Jack bean N-acetyl-D-glucosaminidase at 1 mM after 48 hrs by HPLC analysis; type: ADME; settings: 1000 µM
C6 [15] = experiment: Antitumor activity against rat C6 cells xenografted in nude mouse assessed as reduction in tumor size at 10 mg/kg, intratumorally administered for 14 days relative to control; type: functional, organism-based; parameters: dose 10 mg/kg
C6 [16] = experiment: Antitumor activity against rat C6 cells xenografted in nude mouse assessed as increase in acetate levels in tumor at 10 mg/kg, intratumorally administered for 14 days by 1H MAS NMR spectroscopy relative to control; type: functional, organism-based; parameters: dose 10 mg/kg
C6 [17] = experiment: Antitumor activity against rat C6 cells xenografted in nude mouse assessed as reduction of creatine levels in tumor at 10 mg/kg, intratumorally administered for 14 days by 1H MAS NMR spectroscopy relative to control; type: functional, organism-based; parameters: dose 10 mg/kg
C6 [18] = experiment: Antitumor activity against rat C6 cells xenografted in nude mouse assessed as increase in choline-containing metabolite levels in tumor at 10 mg/kg, intratumorally administered for 14 days by 1H MAS NMR spectroscopy relative to control; type: functional, organism-based; parameters: dose 10 mg/kg
C6 [19] = experiment: Antitumor activity against rat C6 cells xenografted in nude mouse assessed as increase in lactate levels in tumor at 10 mg/kg, intratumorally administered for 14 days by 1H MAS NMR spectroscopy relative to control; type: functional, organism-based; parameters: dose 10 mg/kg

metabolised at 48 h, 1000 µM [3] [%]	IC50 (A549 [7]) [µM]	Drug uptake (A549 [8]) [pmol]	Drug uptake [12]	Stability [14]	Structure (SMILES)	Activity (A549 [1])	Activity (A549 [2]) [%]	Activity (A549 [4])	IC50 (C6 [5]) [µM]	Activity (A549 [6])	Activity (C6 [9])	Activity (A549 [10])	Activity (C6 [11])	Activity (C6 [13])	Activity (C6 [15])	Activity (C6 [16])	Activity (C6 [17])	Activity (C6 [18])	Activity (C6 [19])
32	50	952	–	–	CCCCCCCC/C=C\CCCCCCCCO[C@@H]1O[C@H](CO)[C@@H](O)[C@H](O)[C@H]1NC(C)=O	Active	40	Active	38	inactive	–	–	–	–	–	–	–	–	–
–	25	2916	Active	–	CCCCCCCC/C=C\CCCCCCCCO[C@H]1O[C@H](CO)[C@@H](O)[C@H](O)[C@H]1NC(C)=O	Active	40	Active	16	–	inactive	inactive	inactive	inactive	–	–	–	–	–
–	30	3333	–	Stable	CCCCCCCC/C=C\CCCCCCCCS[C@@H]1O[C@H](CO)[C@@H](O)[C@H](O)[C@H]1NC(C)=O	Active	40	Active	26	inactive	–	–	–	–	–	–	–	–	–
–	35	3675	–	–	CCCCCCCC/C=C\CCCCCCCCS[C@H]1O[C@H](CO)[C@@H](O)[C@H](O)[C@H]1NC(C)=O	Active	40	Active	14	–	–	inactive	–	inactive	Active	Active	Active	Active	Active

— ChEMBL document CHEMBL1828591, “Synthesis of antimitotic thioglycosides: in vitro and in vivo evaluation of their anticancer activity” (J Med Chem, 2011)
